Reference: patent US20050112573A1, “Method of detecting toxic substance” (priority 2001, published 2005)

Tested on: yeast genes (level of expressed mRNA)
Test: DNA chip analysis of expressed mRNA of yeast genes after 2 h culture with a toxic chemical substance
Assay type: cell-based, Saccharomyces cerevisiae S288C
Procedure: Yeast (Saccharomyces cerevtisiae S288C (α SUC2mal mel gap2 CUP1)) were cultured at 25° C. on YPD medium (yeast extract 1%, polypepton 2%, glucose 2%). One of toxic chemical substances was added to the cell at logarithmic growth phase, and the cell was further cultured for two hours. Cell was cultured without any chemical substance in the same condition, and was used as control. Concentrations of the chemical substances were defined to inhibit the growth of the yeast but not lead to death.
After the completion of cultivation, the culture was centrifuged to collect the cells. To the cells, sodium acetate buffer (50 mM sodium acetate, 10 mM EDTA, 1% SDS) was added, and the mixture was shaken at 65° C. for five minutes, followed by returning to room temperature, and obtaining the supernatant, which procedure was repeated two times. To the supernatant, ½ amount of a solution of phenol/chloroform was added, and the mixture was centrifuged to give a supernatant, which was added with an equal amount of chloroform, and the mixture was centrifuged to give a supernatant. To the supernatant, an equal amount of isopropanol containing 0.3 M sodium acetate was added, and the mixture was allowed to stand at room temperature for 30 minutes, after which the mixture was centrifuged to give a sediment of the whole RNAs. Seventy % ethanol was added to the sediment, and the mixture was again centrifuged to give a sediment, which was then dried and dissolved in water. mRNA was isolated from the whole RNAs as followings. In view of the fact that a poly A chain is attached to the 3′ terminus of mRNA, a polynucleotide having a poly T structure which was immobilized on the surface of latex beads was used to trap the mRNA, and then the mRNA was washed and eluted with spine column (Oligotex-dT30<Super>mRNA Purification Kit, Takara). Reverse transcription of the mRNA was conducted with a reverse transcriptase (Super Script II Reverse Transcriptase; catalogue No. 18064-014, GibcoBRL) using fluorescence-labeled nucleotides to give cDNAs that were introduced with Cy3-dUTP or Cy5-dUTP during the reverse transcription.
The labeled cDNAs were dissolved in TE buffer (10 mM Tris-HCl/1 mM EDTA, pH8.0), and the solution was dropped on the DNA chip containing the whole genes of yeast (DNA Chip Research Inc. Japan) so that the cDNAs were hybridized on the DNA chip at 65° C. for over 12 hours. The fluoresces intensity of the DNA chip was read with a scanner, and the ratio relative to the fluorescence intensity resulting from the absence of chemical substance was estimated as the following, which is shown in Tables 1 to 9: [formula]
In the Tables, “Intensity” indicated in the rightmost column is a value of the level of expressed mRNA of each gene in control cells as divided by the average level of the expressions of the whole genes.

S=C([S-])NCCNC(=S)[S-].[Zn+2] [(11), zinc N,N′-ethylenebis(dithiocarbamate)]
level of expressed mRNA in the presence of chemical substance/in its absence (gene YGR282C): 1.5 | The level of expressed mRNA in the presence of chemical substance/absence: YGR293C (gene YGR293C): 0.6 | The level of expressed mRNA in the presence of chemical substance/absence: YHL006C (gene YHL006C): 0.7 | The level of expressed mRNA in the presence of chemical substance/absence: YHL021C (gene YHL021C): 1.4 | The level of expressed mRNA in the presence of chemical substance/absence: YHL037C (gene YHL037C): 1.0 | level of expressed mRNA in the presence of chemical substance/in its absence (gene YHR037W): 1.7 | The level of expressed mRNA in the presence of chemical substance/absence: YHR083W (gene YHR083W): 1.3 | level of expressed mRNA in the presence of chemical substance/in its absence (gene YHR092C): 1.5 | The level of expressed mRNA in the presence of chemical substance/absence: YHR095W (gene YHR095W): 1.3 | The level of expressed mRNA in the presence of chemical substance/absence: YHR105W (gene YHR105W): 0.7 | The level of expressed mRNA in the presence of chemical substance/absence: YHR134W (gene YHR134W): 0.7 | level of expressed mRNA in the presence of chemical substance/in its absence (gene YHR137W): 0.6 | The level of expressed mRNA in the presence of chemical substance/absence: YHR180W (gene YHR180W): 1.4 | The level of expressed mRNA in the presence of chemical substance/absence: YHR181W (gene YHR181W): 1.3 | level of expressed mRNA in the presence of chemical substance/in its absence (gene YHR190W): 1.3 | level of expressed mRNA in the presence of chemical substance/in its absence (gene YIL033C): 1.8 | The level of expressed mRNA in the presence of chemical substance/absence: YIL108W (gene YIL108W): 1.2 | The level of expressed mRNA in the presence of chemical substance/absence: YIL127C (gene YIL127C): 0.9 | level of expressed mRNA in the presence of chemical substance/in its absence (gene YIL154C): 1.2 | The level of expressed mRNA in the presence of chemical substance/absence: YIL165C (gene YIL165C): 1.1 | level of expressed mRNA in the presence of chemical substance/in its absence (gene YIL167W): 1.9 | level of expressed mRNA in the presence of chemical substance/in its absence (gene YIR035C): 1.3 | The level of expressed mRNA in the presence of chemical substance/absence: YJL017W (gene YJL017W): 1.4 | The level of expressed mRNA in the presence of chemical substance/absence: YJL032W (gene YJL032W): 1.8 | The level of expressed mRNA in the presence of chemical substance/absence: YJL037W (gene YJL037W): 1.6 | The level of expressed mRNA in the presence of chemical substance/absence: YJL049W (gene YJL049W): 1.5 | level of expressed mRNA in the presence of chemical substance/in its absence (gene YJL088W): 0.9 | The level of expressed mRNA in the presence of chemical substance/absence: YJL097W (gene YJL097W): 1.5 | level of expressed mRNA in the presence of chemical substance/in its absence (gene YJL132W): 1.4 | level of expressed mRNA in the presence of chemical substance/in its absence (gene YJL196C): 2.3 | The level of expressed mRNA in the presence of chemical substance/absence: YJR030C (gene YJR030C): 0.8 | The level of expressed mRNA in the presence of chemical substance/absence: YJR044C (gene YJR044C): 1.9 | level of expressed mRNA in the presence of chemical substance/in its absence (gene YJR142W): 0.9 | level of expressed mRNA in the presence of chemical substance/in its absence (gene YJR148W): 0.6 | level of expressed mRNA in the presence of chemical substance/in its absence (gene YJR159W): 2.2 | The level of expressed mRNA in the presence of chemical substance/absence: YKL051W (gene YKL051W): 1.8 | The level of expressed mRNA in the presence of chemical substance/absence: YKL059C (gene YKL059C): 0.9 | level of expressed mRNA in the presence of chemical substance/in its absence (gene YKL067W): 1.8 | The level of expressed mRNA in the presence of chemical substance/absence: YKL090W (gene YKL090W): 2.3 | The level of expressed mRNA in the presence of chemical substance/absence: YKL094W (gene YKL094W): 1.3 | The level of expressed mRNA in the presence of chemical substance/absence: YKL097C (gene YKL097C): 0.6 | The level of expressed mRNA in the presence of chemical substance/absence: YKL100C (gene YKL100C): 1.6 | level of expressed mRNA in the presence of chemical substance/in its absence (gene YKR039W): 1.9 | The level of expressed mRNA in the presence of chemical substance/absence: YKR040C (gene YKR040C): 0.8 | The level of expressed mRNA in the presence of chemical substance/absence: YLR097C (gene YLR097C): 1.7 | level of expressed mRNA in the presence of chemical substance/in its absence (gene YLR142W): 3.8 | level of expressed mRNA in the presence of chemical substance/in its absence (gene YLR180W): 1.7 | The level of expressed mRNA in the presence of chemical substance/absence: YLR226W (gene YLR226W): 0.8 | level of expressed mRNA in the presence of chemical substance/in its absence (gene YLR273C): 1.4 | level of expressed mRNA in the presence of chemical substance/in its absence (gene YLR300W): 1.0 | level of expressed mRNA in the presence of chemical substance/in its absence (gene YLR307W): 0.8 | The level of expressed mRNA in the presence of chemical substance/absence: YLR338W (gene YLR338W): 0.9 | The level of expressed mRNA in the presence of chemical substance/absence: YLR339C (gene YLR339C): 1.6 | The level of expressed mRNA in the presence of chemical substance/absence: YLR392C (gene YLR392C): 1.4 | The level of expressed mRNA in the presence of chemical substance/absence: YLR415C (gene YLR415C): 0.8 | The level of expressed mRNA in the presence of chemical substance/absence: YLR427W (gene YLR427W): 0.8 | The level of expressed mRNA in the presence of chemical substance/absence: YML013W (gene YML013W): 1.1
